pIC50: −log10 of the molar value.

In one data set the target is T1, hCA IX (Homo sapiens, UniProt Q16790).
T1 construct: purchased Shanghai Jining Biological
The experiment in a line: CA inhibition assay, 4-nitrophenyl acetate (4-NPA) esterase assay. It is filed as biochemical. The following applies: errors ±5–10% of the reported values.

A further data set addresses T2, hCA II (Homo sapiens, UniProt P00918).
T2 construct: purchased Shanghai Jining Biological
Described as above. The format is biochemical. The settings on record: errors ±5–10% of the reported values.

Protocol for hCA II: (§1) The inhibitory activity was evaluated by monitoring the hydrolysis of 4-nitrophenylacetate (4-NPA.).
(§2) Therefore, according to the method described by Verpoorte previously [32], 4-NPA was catalyzed into 4-nitrophenol for the determination of CA activity.
(§3) The substrate (4-NPA) was dissolved in DMSO at a substrate concentration of 1 mM. Standard hCAs II and IX (acquired from Shanghai Jining Biological) were diluted to the indicated concentrations with assay buffer and added to the cells. Different concentrations of inhibitors were added to the cells, followed by incubation at room temperature for 15 min to form complexes of inhibitors and enzymes (E-I). Then, 100 μL of E-I complex and 900 μL of substrate were successively added to a 1 mL glass cuvette and mixed immediately. […] At the same time, the non-enzymatic hydrolysis rate was determined by a blank control test. Standard hCAs II and IX were diluted to final concentrations of 1.5 ng/μL and 5 ng/μL, respectively [26, 35]. The FORECAST (x, known-y’s, known-x’s) command of Excel was used to return a predicted value through the linear regression equation to calculate the IC50 values. The experiments were repeated three times for each inhibitor concentration.
Protocol for hCA IX: as §1, §2, §3

`O=C(NC(=S)Nc1ccc(S(=O)(=O)Nc2ncccn2)cc1)c1ccc2c(c1)C(=O)c1ccccc1C2=O` [Compound 5j] yielded a melting point of 237 to 237.2 °C. This compound had a pIC50 on hCA IX of 7.11. Besides, at hCA II, the pIC50 is 7.06.
Turning to `O=C(O)c1ccc(NC(=O)c2ccc3c(c2)C(=O)c2ccccc2C3=O)cc1` [Compound 6a, 4-(9,10-Dioxo-9,10-Dihydroanthracene-2-Carboxamido)Benzoic Acid], the melting point was in the range of 338 to 338.5 °C. This compound had a pIC50 against hCA IX of 6.71. The compound also showed a pIC50 on hCA II of 6.53.
`O=C(O)c1cccc(NC(=O)c2ccc3c(c2)C(=O)c2ccccc2C3=O)c1` [Compound 6b, (9,10-Dioxo-9,10-Dihydroanthracene-2-Carboxamido)Benzoic Acid] gave a melting point of 274 to 274.6 °C. Besides, the pIC50 against hCA IX was 6.78. The pIC50 against hCA II is 6.56.
The compound `CC(=O)NS(=O)(=O)c1ccc(NC(=O)c2ccc3c(c2)C(=O)c2ccccc2C3=O)cc1` [Compound 6k, N-(4-(N-Acetylsulfamoyl)Phenyl)-9,10-Dioxo-9,10-Dihydroanthracene-2-Carboxamide] registered a melting point of 304 to 304.3 °C. In addition, at hCA IX, the pIC50 was 6.85. Also, the pIC50 on hCA II was 6.77.
Regarding `NS(=O)(=O)c1cccc(NC(=O)c2ccc3c(c2)C(=O)c2ccccc2C3=O)c1` [Compound 6d, 9,10-Dioxo-N-(3-Sulfamoylphenyl)-9,10-Dihydroanthracene-2-Carboxamide], the melting point fell in the range of 283 to 283.2 °C. Besides, at hCA IX, the pIC50 is 7.25. Besides, at hCA II, the pIC50 is 7.04.
In turn, `CNS(=O)(=O)c1ccc(NC(=S)NC(=O)c2ccc3c(c2)C(=O)c2ccccc2C3=O)cc1` [Compound 5i, ((4-(N-Methylsulfamoyl)Phenyl)Carbamothioyl)-9,10-Anthraquinone-2-Carboxamide] had a melting point of 207 to 207.6 °C. The compound further had a pIC50 against hCA IX of 7.00. On hCA II, this compound showed a pIC50 of 7.12.
As to `O=C(O)c1cccc(NC(=S)NC(=O)c2ccc3c(c2)C(=O)c2ccccc2C3=O)c1` [Compound 5b, 3-(3-(9,10-Dioxo-9,10-Dihydroanthracene-2-Carbonyl) Thioureido) Benzoic Acid], the values for the pIC50 on hCA IX and at hCA II were 6.59 and 6.87, respectively.
Turning to `NS(=O)(=O)c1cccc(NC(=S)NC(=O)c2ccc3c(c2)C(=O)c2ccccc2C3=O)c1` [Compound 5d, 9,10-Dioxo-N-((3-Sulfamoylphenyl)Carbamothioyl)-9,10-Dihydroanthracene-2-Carboxamide], the melting point is 146.5 to 146.8 °C. For the same compound, at hCA IX, the pIC50 was 7.13. Moreover, at hCA II, the pIC50 is 7.19.
Take `O=C(NC(=S)Nc1ccc(S(=O)(=O)Nc2nccs2)cc1)c1ccc2c(c1)C(=O)c1ccccc1C2=O` [Compound 5m, 9,10-Dioxo-N-((4-(N-(Thiazol-2-yl)Sulfamoyl)Phenyl)Carbamothioyl)-9,10-Dihydroanthracene-2-Carboxamide]: the pIC50 against hCA IX is 7.15; against hCA II it was 7.02.
For the compound `O=C(O)c1ccc(NC(=S)NC(=O)c2ccc3c(c2)C(=O)c2ccccc2C3=O)cc1` [Compound 5a, (3-(9,10-Dioxo-9,10-Dihydroanthracene-2-Carbonyl) Thioureido) Benzoic Acid], the melting point was 221 to 221.4 °C. On hCA IX, the pIC50 is 6.66. For the same compound, the pIC50 at hCA II was 6.95.
The corresponding values for `CC(=O)NS(=O)(=O)c1ccc(NC(=S)NC(=O)c2ccc3c(c2)C(=O)c2ccccc2C3=O)cc1` [Compound 5k, ((4-(N-Acetylsulfamoyl)Phenyl)Carbamothioyl)-9,10-Dioxo-9,10-Dihydroanthracene-2-Carboxamide] are 192 to 192.4 °C, 6.64 and 6.81.
The compound `CC(=O)c1ccc(NC(=O)c2ccc3c(c2)C(=O)c2ccccc2C3=O)cc1` [Compound 6e, N-(4-Acetylphenyl)-9,10-Dioxo-9,10-Dihydroanthracene-2-Carboxamide] showed a melting point of 266 to 266.5 °C. Further, the pIC50 against hCA IX was 6.78.

As a reminder, the pIC50 is the negative decadic logarithm of the IC50, by convention in mol/L. As a reminder, the melting point is the temperature, or range, at which the solid turns liquid.

The values are drawn from paper PMC10969960, “Novel Anthraquinone-Based Benzenesulfonamide Derivatives and Their Analogues as Potent Human Carbonic Anhydrase Inhibitors with Antitumor Activity: Synthesis, Biological Evaluation, and In Silico Analysis” (International Journal of Molecular Sciences, 2024).
